Reference: the supplement of paper PMC10307832

How the values were obtained:
Assay in all cases: relative viability (nuclei count vs DMSO), 5 days (fraction); higher = more cells survive
[1] = compound: CC1=CC(=CC=C1)NC2=NC(=CS2)C3=CC=NC=C3 + CCNC(=O)c1noc(-c2cc(C(C)C)c(O)cc2O)c1-c1ccc(CN2CCOCC2)cc1 [Luminespib] (partner 0.01 µM)
Procedure, shortened: (§1)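 Each reported value is a median over duplicate plates. It expresses relative viability: treated-well nuclei count divided by vehicle-well nuclei count. Lung cancer cell lines in 1536-well plates were dosed by pin tool a day after seeding, alone with one drug or with a fixed anchor-drug dose plus five library-drug doses (not always all listed) in √10 steps, and nuclei were counted after 5 days.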

Masitinib + Pictilisib = compound: Cc1ccc(NC(=O)c2ccc(CN3CCN(C)CC3)cc2)cc1Nc1nc(-c2cccnc2)cs1 [Masitinib] + CS(=O)(=O)N1CCN(Cc2cc3nc(-c4cccc5[nH]ncc45)nc(N4CCOCC4)c3s2)CC1 [Pictilisib] (partner 1 µM)
Procedure, shortened: as §1

[2] = compound: CC1=CC(=CC=C1)NC2=NC(=CS2)C3=CC=NC=C3 + CC(=O)Nc1cccc(-n2c(=O)n(C3CC3)c(=O)c3c(Nc4ccc(I)cc4F)n(C)c(=O)c(C)c32)c1 [Trametinib] (partner 0.02 µM)
Procedure, shortened: as §1

Masitinib + Olaparib = compound: Cc1ccc(NC(=O)c2ccc(CN3CCN(C)CC3)cc2)cc1Nc1nc(-c2cccnc2)cs1 [Masitinib] + O=C(c1cc(Cc2n[nH]c(=O)c3ccccc23)ccc1F)N1CCN(C(=O)C2CC2)CC1 [Olaparib] (partner 8 µM)
Procedure, shortened: as §1

| Cell Line | relative viability ([1]; first compound 0.08 µM) | relative viability ([1]; first compound 0.253 µM) | relative viability ([1]; first compound 0.8 µM) | relative viability ([1]; first compound 2.53 µM) | relative viability ([1]; first compound 8 µM) | relative viability (Masitinib + Pictilisib; first compound 0.01 µM) | relative viability (Masitinib + Pictilisib; first compound 0.03162 µM) | relative viability (Masitinib + Pictilisib; first compound 0.1 µM) | relative viability (Masitinib + Pictilisib; first compound 0.3162 µM) | relative viability (Masitinib + Pictilisib; first compound 1 µM) | relative viability ([2]; first compound 0.08 µM) | relative viability ([2]; first compound 0.253 µM) | relative viability ([2]; first compound 0.8 µM) | relative viability ([2]; first compound 2.53 µM) | relative viability ([2]; first compound 8 µM) | relative viability (Masitinib + Olaparib; first compound 0.01 µM) | relative viability (Masitinib + Olaparib; first compound 0.03162 µM) | relative viability (Masitinib + Olaparib; first compound 0.1 µM) | relative viability (Masitinib + Olaparib; first compound 0.3162 µM) | relative viability (Masitinib + Olaparib; first compound 1 µM) |
| --- | --- | --- | --- | --- | --- | --- | --- | --- | --- | --- | --- | --- | --- | --- | --- | --- | --- | --- | --- | --- |
| 201T | 1.08 | 0.993 | 1 | 0.95 | 0.849 | 0.642 | 0.623 | 0.646 | 0.556 | 0.639 | 0.75 | 0.76 | 0.76 | 0.778 | 0.659 | 0.702 | 0.901 | 0.765 | 0.721 | 0.806 |
| A549 |  |  |  |  |  | 0.459 | 0.48 | 0.478 | 0.576 | 0.566 |  |  |  |  |  | 0.363 | 0.184 | 0.338 | 0.301 | 0.325 |
| A-427 | 0.738 | 0.916 | 0.918 | 0.729 | 0.866 |  | 0.55 |  | 0.687 | 0.601 | 0.572 | 0.716 | 0.714 | 0.719 | 0.624 | 0.621 | 0.711 | 0.654 | 0.489 | 0.663 |
| ABC-1 | 0.447 | 0.766 | 0.492 | 0.676 | 0.647 | 0.686 | 0.623 | 0.977 | 0.652 | 0.61 |  |  |  |  |  | 0.727 | 1.39 | 0.844 | 0.67 | 0.78 |
| BEN | 0.424 | 0.174 | 0.488 | 0.267 | 0.356 | 0.638 | 0.51 | 0.71 | 0.555 | 0.627 | 0.82 | 1.16 | 0.99 | 0.994 | 0.898 | 1.21 | 1.1 | 1.4 | 1.23 | 1.08 |
| CAL-12T | 0.399 | 0.355 | 0.335 | 0.513 | 0.29 | 0.519 | 0.377 | 0.694 | 0.392 | 0.293 | 0.282 | 0.325 | 0.342 | 0.236 | 0.305 | 0.716 | 0.696 | 0.688 | 0.712 | 0.708 |
| COR-L23 | 0.603 | 0.648 | 0.564 | 0.659 | 0.662 | 0.751 | 0.749 | 0.844 | 0.932 | 0.893 | 0.44 | 0.598 | 0.59 | 0.568 | 0.567 | 0.35 | 0.329 | 0.361 | 0.309 | 0.27 |
| COR-L 105 | 0.727 | 0.769 | 0.755 | 0.591 | 0.665 | 0.396 | 0.356 | 0.395 | 0.412 | 0.428 | 0.442 | 0.465 | 0.454 | 0.424 | 0.38 | 0.655 | 0.532 | 0.689 | 0.494 | 0.498 |
| Calu-6 |  |  |  |  |  | 0.905 | 0.857 | 1.06 | 0.988 | 0.861 |  |  |  |  |  | 0.53 | 0.656 | 0.63 | 0.563 | 0.547 |
| ChaGo-K-1 | 0.525 | 0.605 | 0.57 | 0.589 | 0.372 | 0.929 | 0.466 | 0.929 | 0.823 | 0.598 | 0.903 | 0.882 | 0.858 | 0.929 | 0.839 | 0.39 | 0.435 | 0.405 | 0.35 | 0.392 |
| EBC-1 |  |  |  |  |  | 0.348 | 0.357 | 0.427 | 0.309 | 0.413 |  |  |  |  |  | 0.679 | 0.673 | 0.814 | 0.713 | 0.615 |
| EKVX | 0.854 | 0.835 | 0.892 | 0.819 | 0.765 |  | 0.364 | 0.463 | 0.275 | 0.412 | 0.29 | 0.308 |  | 0.313 | 0.319 | 0.653 | 0.704 | 0.766 |  | 0.744 |
| EMC-BAC-2 | 1.15 | 1.23 | 1.15 | 1.1 | 1.13 | 0.553 | 0.518 | 0.58 | 0.552 | 0.503 | 0.798 |  | 1.01 | 0.879 | 0.823 | 0.457 | 0.484 | 0.481 | 0.416 | 0.456 |
| EPLC-272H | 0.194 | 0.359 | 0.218 | 0.245 | 0.389 | 0.29 | 0.304 | 0.319 | 0.284 | 0.293 | 0.308 | 0.271 | 0.296 |  | 0.277 | 0.927 |  | 0.866 | 0.655 | 0.768 |
| H3255 | 0.902 | 0.681 | 0.905 | 0.702 | 0.826 | 0.489 | 0.501 | 0.542 | 0.456 | 0.407 | 0.597 | 0.602 | 0.569 | 0.585 | 0.403 | 0.474 | 0.566 | 0.513 | 0.545 | 0.555 |
| HARA | 0.494 | 0.872 | 0.496 | 0.684 | 0.359 | 0.389 | 0.331 | 0.448 | 0.372 | 0.412 | 0.561 | 0.742 | 0.734 | 0.447 | 0.629 | 0.749 | 0.507 | 1.15 |  | 1.13 |
| HCC-15 | 0.386 | 0.299 | 0.475 | 0.31 | 0.274 | 0.604 | 0.72 | 0.672 | 0.77 | 0.686 | 0.369 | 0.383 | 0.373 | 0.348 | 0.343 | 0.628 | 0.669 | 0.753 | 0.735 | 0.82 |
| HCC-44 | 0.974 | 0.939 | 1.06 | 1.01 | 1.09 | 0.633 | 0.436 | 0.59 | 0.509 | 0.543 | 0.939 | 0.847 | 0.701 | 0.687 | 0.695 | 0.939 | 0.968 | 0.979 | 0.916 | 0.963 |
